pIC50: −log10 of the molar value. Converted amounts (≈) assume the structure as drawn.
Columns and labels:
[1] = Cytotoxicity against HEK293T cells at 50 uM after 72 hrs by MTT assay; assay type: cell-based, HEK-293T; conditions: human
[2] = Selectivity index, ratio of IC50 for HEK293T cells to MIC for Mycobacterium tuberculosis H37Rv ATCC 27294; assay type: toxicity, cell-based, HEK-293T; conditions: human, read-out: Selectivity Index
[3] = tested on: Mycobacterium tuberculosis; experiment: Antimycobacterial activity against Mycobacterium tuberculosis H37Rv ATCC 27294 after 28 days by agar dilution method; assay type: functional; conditions: H37Rv ATCC 27294, 672 h
HEK-293T = experiment: Cytotoxicity against HEK293T cells after 72 hrs by MTT assay; assay type: cell-based; conditions: Homo sapiens
Pseudomonas aeruginosa = experiment: Antibacterial activity against Pseudomonas aeruginosa; assay type: functional
[4] = tested on: Mycolicibacterium smegmatis; experiment: Antimycobacterial activity against Mycobacterium smegmatis assessed as growth inhibition after 32 hrs by spectrophotometry; assay type: functional

Row | Compound | inhibition at 72 h, 50 µM [1] [%] | selectivity ratio [2] | MIC [3] [µM] | pIC50 (HEK-293T) | MIC (Pseudomonas aeruginosa) [µM] | GI50 [4] [µM]
1 | O=C(O)Cn1c(-c2ccccc2)cc(-c2ccccc2)c1-c1ccccc1 | 97 | 1.47 | 34.1 (≈ 12 µg/mL) | > 4.30 | 47.7 (≈ 16.9 µg/mL) | –
2 | CCc1nnc(NC(=O)Cn2c(-c3ccccc3)cc(-c3ccccc3)c2-c2ccccc2)s1 | 49.3 | 3.71 | 13.5 (≈ 6.26 µg/mL) | > 4.30 | 323 (≈ 150 µg/mL) | 20.4
3 | O=C(O)Cn1c(-c2ccccc2)cc(-c2ccccc2)c1-c1ccc(Br)cc1 | – | – | 32.3 (≈ 14 µg/mL) | – | 348 (≈ 150 µg/mL) | –
4 | O=C(O)Cn1c(-c2ccccc2)cc(-c2ccco2)c1-c1ccco1 | – | – | 75.1 (≈ 25 µg/mL) | – | 113 (≈ 37.5 µg/mL) | –
5 | O=C(O)Cn1c(-c2cccc3ccccc23)cc(-c2ccccc2)c1-c1ccco1 | 79.5 | 1.57 | 31.8 (≈ 12.5 µg/mL) | > 4.30 | 47.7 (≈ 18.8 µg/mL) | –
6 | O=C(Cn1c(-c2ccccc2)cc(-c2ccccc2)c1-c1ccc(Br)cc1)Nc1ccccn1 | 75 | 8.13 | 6.15 (≈ 3.13 µg/mL) | > 4.30 | 295 (≈ 150 µg/mL) | 45.9
7 | Cc1ccc(-c2c(-c3ccccc3)cc(-c3ccccc3)n2CC(=O)O)cc1 | 78.2 | 0.86 | 58 (≈ 21.3 µg/mL) | > 4.30 | 409 (≈ 150 µg/mL) | –
8 | CCc1nnc(NC(=O)Cn2c(-c3ccccc3)cc(-c3ccccc3)c2-c2ccco2)s1 | 81 | 1.81 | 27.6 (≈ 12.5 µg/mL) | > 4.30 | 331 (≈ 151 µg/mL) | 23.3
9 | CC1(C)S[C@@H]2[C@H](NC(=O)Cc3ccccc3)C(=O)N2[C@H]1C(=O)O [PENICILLIN G] | – | – | – | – | 37.4 (≈ 12.5 µg/mL) | –
10 | CC(C)CC(C(=O)O)n1c(-c2ccccc2)cc(-c2ccccc2)c1-c1ccco1 (stereo not given) | 82.4 | 6.38 | 7.83 (≈ 3.13 µg/mL) | > 4.30 | 376 (≈ 150 µg/mL) | –
11 | CO[C@H]1/C=C/O[C@@]2(C)Oc3c(C)c(O)c4c(O)c(c(/C=N/N5CCN(C)CC5)c(O)c4c3C2=O)NC(=O)/C(C)=C\C=C\[C@H](C)[C@H](O)[C@@H](C)[C@@H](O)[C@@H](C)[C@H](OC(C)=O)[C@@H]1C [RIFAMPIN] | – | – | 0.29 (≈ 0.239 µg/mL) | – | – | 1.22
12 | O=C(Cn1c(-c2ccc3ccccc3c2)cc(-c2ccccc2)c1-c1ccco1)NCc1ccccc1 | – | – | 51.9 (≈ 25 µg/mL) | – | 311 (≈ 150 µg/mL) | –
13 | O=C(O)Cn1c(-c2ccccc2)cc(-c2ccccc2)c1-c1ccc(Cl)cc1 | 37.4 | 1.55 | 64.6 (≈ 25.1 µg/mL) | > 4.30 | 388 (≈ 150 µg/mL) | –
14 | O=C(Cn1c(-c2ccccc2)cc(-c2ccccc2)c1-c1ccccc1)Nc1nc2ccccc2s1 | 55 | 0.76 | 6.44 (≈ 3.13 µg/mL) | > 4.30 | 309 (≈ 150 µg/mL) | 28.9
15 | O=C(Cn1c(-c2ccccc2)cc(-c2ccco2)c1-c1ccco1)Nc1nc2ccccc2s1 | 65.1 | 1.7 | 29.5 (≈ 13.7 µg/mL) | > 4.30 | 354 (≈ 165 µg/mL) | 14
16 | CCc1nnc(NC(=O)Cn2c(-c3ccc4ccccc4c3)cc(-c3ccccc3)c2-c2ccco2)s1 | 83.6 | 2.02 | 24.8 (≈ 12.5 µg/mL) | > 4.30 | 298 (≈ 150 µg/mL) | 73.9
17 | O=C(O)Cn1c(-c2ccccc2)cc(-c2cccc3ccccc23)c1-c1ccco1 | 32 | > 6.29 | 7.95 (≈ 3.13 µg/mL) | > 4.30 | 13.3 (≈ 5.22 µg/mL) | –

Row | Compound | inhibition at 72 h, 50 µM [1] [%] | selectivity ratio [2] | MIC [3] [µM] | pIC50 (HEK-293T) | MIC (Pseudomonas aeruginosa) [µM] | GI50 [4] [µM]
18 | O=C(O)Cn1c(-c2ccccc2)cc(-c2ccccc2)c1-c1ccco1 | 114 | 2.74 | 18.2 (≈ 6.26 µg/mL) | > 4.30 | 54.7 (≈ 18.8 µg/mL) | –
19 | O=C(Cn1c(-c2ccccc2)cc(-c2ccccc2)c1-c1ccco1)NCCc1c[nH]c2ccccc12 | 62.5 | 7.76 | 6.44 (≈ 3.13 µg/mL) | > 4.30 | 77.3 (≈ 37.5 µg/mL) | 26.8
20 | CN[C@@H]1[C@H](O[C@H]2[C@H](O[C@H]3[C@H](O)[C@@H](O)[C@H](N=C(N)N)[C@@H](O)[C@@H]3N=C(N)N)O[C@@H](C)[C@]2(O)C=O)O[C@@H](CO)[C@H](O)[C@H]1O [STREPTOMYCIN] | – | – | – | – | 2.68 (≈ 1.56 µg/mL) | –
21 | NNC(=O)c1ccncc1 [ISONIAZID] | – | – | 5.25 (≈ 0.72 µg/mL) | – | – | 41.6
22 | O=C(Cn1c(-c2ccccc2)cc(-c2ccccc2)c1-c1ccc(Br)cc1)Nc1nc2ccccc2s1 | 86.7 | 4.51 | 11.1 (≈ 6.25 µg/mL) | > 4.30 | 266 (≈ 150 µg/mL) | 48.3
23 | O=C(Cn1c(-c2ccccc2)cc(-c2ccccc2)c1-c1ccco1)Nc1nc2ccccc2s1 | 89.8 | 3.8 | 13.2 (≈ 6.26 µg/mL) | > 4.30 | 316 (≈ 150 µg/mL) | 44.6
24 | CC(C)C(C(=O)O)n1c(-c2ccccc2)cc(-c2ccccc2)c1-c1ccco1 (stereo not given) | – | – | 130 (≈ 50.1 µg/mL) | – | 97.4 (≈ 37.5 µg/mL) | –
25 | CCc1nnc(NC(=O)Cn2c(-c3ccccc3)cc(-c3cccc4ccccc34)c2-c2ccco2)s1 | 59.7 | 16.1 | 3.1 (≈ 1.56 µg/mL) | > 4.30 | 298 (≈ 150 µg/mL) | 66.8
26 | CCc1nnc(NC(=O)Cn2c(-c3ccccc3)cc(-c3ccccc3)c2-c2ccc(Br)cc2)s1 | – | – | 46.1 (≈ 25.1 µg/mL) | – | 277 (≈ 150 µg/mL) | 30.6
27 | CC(C)C(C(=O)O)n1c(-c2ccccc2)cc(-c2ccco2)c1-c1ccco1 (stereo not given) | – | – | 66.7 (≈ 25 µg/mL) | – | 400 (≈ 150 µg/mL) | –
28 | CCc1nnc(NC(=O)Cn2c(-c3ccccc3)cc(-c3ccco3)c2-c2ccco2)s1 | 90.2 | 3.55 | 14.1 (≈ 6.26 µg/mL) | > 4.30 | 338 (≈ 150 µg/mL) | 15.2
29 | O=C(Cn1c(-c2ccccc2)cc(-c2ccccc2)c1-c1ccccc1)Nc1ccccn1 | 62.9 | 6.86 | 7.28 (≈ 3.13 µg/mL) | > 4.30 | 175 (≈ 75.1 µg/mL) | 26.7
30 | O=C(Cn1c(-c2ccc3ccccc3c2)cc(-c2ccccc2)c1-c1ccco1)Nc1nc2ccccc2s1 | 38.3 | > 16.8 | 2.97 (≈ 1.56 µg/mL) | > 4.30 | 286 (≈ 150 µg/mL) | –
31 | CC[C@@H](CO)NCCN[C@@H](CC)CO [ETHAMBUTOL] | – | – | 27.5 (≈ 5.62 µg/mL) | – | – | –
32 | O=C(Cn1c(-c2ccccc2)cc(-c2ccccc2)c1-c1ccco1)Nc1ccccn1 | 69.3 | 1.68 | 29.8 (≈ 12.5 µg/mL) | > 4.30 | 358 (≈ 150 µg/mL) | 24.8
33 | O=C(Cn1c(-c2ccccc2)cc(-c2cccc3ccccc23)c1-c1ccco1)Nc1nc2ccccc2s1 | 68.8 | 16.8 | 2.97 (≈ 1.56 µg/mL) | > 4.30 | 286 (≈ 150 µg/mL) | 61.4
34 | O=C(Cn1c(-c2ccccc2)cc(-c2ccccc2)c1-c1ccco1)NCc1ccccc1 | 72.4 | 6.91 | 7.23 (≈ 3.13 µg/mL) | > 4.30 | 347 (≈ 150 µg/mL) | 52.4
